These results are taken from paper PMC9321043, “Synthesis, Structure–Activity Relationships, and Parasitological Profiling of Brussonol Derivatives as New Plasmodium falciparum Inhibitors” (Pharmaceuticals, 2022).

Values joined by “and” are separate entries in the source; they are usually repeats but may differ in a detail not shown here. Identical values can stand only once. Like-named read-outs stand apart in the source and are kept apart here. Some results are limits rather than exact numbers.

Experiment [1] deals with P. falciparum (3D7 strain). As to the kind of experiment: In vitro antiplasmodial activity, P. falciparum blood-stage parasites, SYBR Green I. It is filed as cell-based, Plasmodium falciparum. As for the experimental part:
The P. falciparum strains were cultivated in human blood cells (hRBC) O^+, while P. knowlesi was cultivated in rhesus red blood cells (rRBC) as described. P. falciparum complete RPMI (consisting of RPMI-1640, supplemented with 0.2% NaHCO3, 25 mM HEPES (pH 7.4), 11 mM D-glucose, 10 mg/L hypoxanthine, 25 mg/L gentamicin, and 0.5% (m/v) AlbuMAX II). The parasitemias of these cultures were maintained below 10% with 2.5% hematocrit. P. knowlesi complete RPMI (consisting of RPMI-1640 supplemented with 25 mM HEPES, […] hypoxanthine, 0.26% NaHCO3, 10 mg/L gentamicin, and 1% Albumax II). This culture was maintained with RBCs up to 5% hematocrit. The culture medium was changed daily, and all cultures were maintained under a 90% N2/5% CO2/5% O2 gas mixture at 37 °C. All compounds were purchased from Sigma-Aldrich (Cotia, Brazil).
The antiplasmodial activity of brussonol and derivatives was evaluated against P. falciparum blood parasites 3D7(chloroquine-sensitive). The parasites were synchronized through sterile 5% (m/v) D-sorbitol treatment over 10 min at 37 °C for the enrichment of ring stages. Centrifugation 600× g over 5 min was used to pellet the cultures. The parasitemia was determined by microscope analysis of thin blood smears stained with Giemsa 10% (v/v) after fixation with methanol. The initial parasitemia was calculated for 1000 red blood cells (RBCs), and cultures were diluted to 0.5% parasitemia and 2% hematocrit by the addition of the appropriate volumes of blood and medium. A total of 180 µL aliquots of parasites were distributed into 96-well plates followed by the addition of 20 µL of previously prepared aliquots of ten-fold concentrated compounds, the range of concentrations tested was 10–1.53 µM. Negative and positive control wells, which correspond to non-parasitized erythrocytes and parasite cultures in the absence of compounds, were set in parallel. The DMSO concentration was maintained below 0.05% (v/v) for all compounds except for brussonol, which was 0.5%. The plates were incubated for 72 h at 37 °C in a humidified incubator with a gas mixture of 90% N2, 5% O2, and 5% CO2. Each test was performed in duplicates, and the results were compared with the control cultures. Once completed incubation, the culture medium was removed, and the cells were resuspended in 100 µL PBS (116 mM NaCl, 10 mM NaH2PO4, 3 mM KH2PO4) and lysed with 100 µL lysis buffer (20 mM Tris base, 5 mM EDTA, 0.0008% (v/v) Triton X-100, 0.008% (m/v) saponin, pH 8.0) containing 0.002% (v/v) SYBR Green I. Plates were incubated for 30 min at room temperature, and a SpectraMAX Gemini EM plate reader (Molecular Devices Corp., Sunnyvale, CA) was used to determine the fluorescence corresponding to parasitic density (excitation at 485 nm, emission at 535 nm). The half-maximal inhibitory concentration (IC50^Pf) was determined by non-linear regression analysis of the resulting concentration–response curve using the software GraphPad Prism version 8.0.1 for Windows, GraphPad Software, San Diego, California USA, www.graphpad.com, accessed on 3 March 2022”.

In the next experiment the test system is P. falciparum Dd2 strain. Put plainly: Resistance assessment, Dd2 strain. It is filed as cell-based. To be noted: Plasmodium falciparum.
The subject of experiment [2] is P. falciparum. Put plainly: Speed-of-action assay. It is filed as cell-based, Plasmodium falciparum. The method, then:
The speed-of-action assay assesses the inhibitory activity of the tested compounds after 24, 48, and 72 h of drug exposure. […] Moreover, to confirm the speed-of-action, the morphological development of the parasite in parallel with the IC50 assessment was verified. The parasites in the negative control wells developed according to the expected timeline (Figure 5a). […] Brussonol caused parasite death within the first 24 h of incubation as observed for artesunate (Figure 5a).
In this method, three 96-well plates were prepared by adding 180 µL of the parasite’s inoculum with 0.5% parasitemia and 2% hematocrit. A serial dilution of the compounds was added to each plate; the starting concentration for brussonol was 6× IC50, while for artesunate and pyrimethamine (fast- and slow-acting controls, respectively) were 10× IC50. In addition, a positive and negative control, which corresponded to parasite cultures with no addition of inhibitor and non-parasitized erythrocytes, respectively, were used for the parasite’s control growth. Each plate was treated for a different period (24, 48, or 72 h), and the first two plates were washed twice with fresh medium to remove the inhibitor, followed by incubation of 48 and 24 h, respectively. […] A statistical analysis using a one-way ANOVA test was done to compare each time point using GraphPad Prism version 8.0.1 for Windows, GraphPad Software, San Diego, California USA, www.graphpad.com, accessed on 1 February 2022. In parallel, the morphological development of the parasite under the compounds’ pressure was assessed by adding the compounds tested at the highest concentration evaluated. Blood smears of each well were made and stained at time points 0, 24, 48, and 72 h.

For the next experiment, the system named is P. falciparum K1 strain. As to the kind of experiment: Resistance assessment, K1 strain. It is filed as cell-based. Particulars: Plasmodium falciparum.
Experiment [3] relates to P. falciparum. As to the kind of experiment: In vitro combination with artesunate, fixed-ratio isobologram. It is filed as cell-based, Plasmodium falciparum. An excerpt: A drug combination investigation is important to assess whether the combination of the tested compound with a known antimalarial drug is advantageous or not. In this assay, a fixed molar ratio was used to assess the combination profile of brussonol and artesunate. The range of concentrations tested was based on the assessed IC50 values of both the compounds previously determined. In this method, we first determined the additive isobole, which defined the range of IC50 values pairs to be attributed to an additive (neutral) character of combination. Next, the combination pairs were plotted. Data points distributed below or above the additive isobole indicate a synergic or antagonistic profile, respectively.
This assay was adapted from the work done by Fivelman and collaborators (2004). Consideration of additivity ranges was included in the analysis, as described by Grabovsky and Tallarida (2004). Brussonol and artesunate were diluted and combined in a 96-well plate in […] fixed-ratio combinations (1:0, 6:1, 5:2, 4:3, 3:4, 2:5, 1:6, 0:1). Starting concentrations were 6× IC50 for both compounds. […] The absolute IC50s of brussonol and artesunate (proportions 1:0 and 0:1), the partial IC50s (IC50^brussonol and IC50^artesunate) for each combination (6:1, 5:2, 4:3, 3:4, 2:5, 1:6), and the fractional inhibitory concentrations for each combination were determined.

The IC50 is the concentration at which inhibition is half-maximal. For `CC(C)c1cc2c(c(O)c1O)C[C@@]13CCCC(C)(C)[C@@H]1C[C@@H]2O3` [Compound 1, brussonol], the IC50 is 16 ± 2 µM in experiment [1] (3D7 strain, 72 h, SYBR Green I, read-out: IC50^Pf); 13 ± 2 µM in experiment [1] (Plasmodium falciparum, 3D7, 3D7 strain, Table 2 strain panel, read-out: IC50); around 20 µM in experiment [1] (Plasmodium falciparum, 3D7, 72 h, 3D7 strain, 72 h, SYBR Green I, read-out: IC50^Pf); 7 ± 2 µM in the experiment on P. falciparum Dd2 strain; 6.6 ± 0.1 µM with P. falciparum K1 strain. Besides, in the experiment on P. falciparum [2] (IC50 compared after 24, 48 and 72 h of drug exposure), the speed of action entry is on record as “fast-acting in vitro inhibition”. Besides, the “time of parasite death (morphological development, pyknotic nuclei)” value in the experiment on P. falciparum [2] (highest concentration evaluated, Giemsa smears at 0, 24, 48, 72 h) was at most 24 h. The “sum of fractional inhibitory concentrations (FICindex)” value in the experiment on P. falciparum [3] (brussonol combined with artesunate, proportion 1:1 respective to each IC50) is ~ 1 and 1.1 ± 0.1. In addition, the “combination profile with artesunate” value with P. falciparum [3] (isobologram, fixed-ratio combinations) is on record as “additive effect”.
